{"source": "patent US9206103B2", "about": "“Materials and methods for reduction of protein tau and treatment of neurodegenerative diseases” (UNIVERSITY OF SOUTH FLORIDA, priority 2010, dated 2015)", "key": {"tau [1]": {"system": "tau", "experiment": "Western blot of tau levels in HeLa cells stably overexpressing tau (HeLa-C3)", "format": "cell-based", "details": "for tau levels, effect of chirality: HeLa-C3, similar concentrations of enriched and racemic myricanol", "experimental": "(§1) HeLa cells stably expressing VS-tagged 4R0N tau were maintained under G418 selection in Opti-Mem plus 10% FBS (complete media; Invitrogen) as previously described (Jinwal et al. (2009) J Neurosci 29, 12079-12088). IMR32 cells were maintained in Opti-mem plus 10% FBS and 2% 200 mM L-glutamine (Cellgro, Mediatech, Inc, Herndon, Va.). IMR32, M17, and H4 cells were maintained in Opti-mem plus 10% FBS and 2% 200 mM L-glutamine (Cellgro, Mediatech, Inc., Herndon, Va.). All cells were treated as indicated and harvested as previously described (Jinwal et al. (2009) J Neurosci 29, 12079-12088).\n(§2) Protein levels were determined by using the Peirce BCA kit. Western blotting was performed by running SDS-PAGE, followed by transfer onto Immobilon-P (Millipore), as previously described (Dickey et al. (2005) Curr Alzheimer Res 2, 231-23; Koren et al. (2010) J. Bio. Chem. 285, 2498-2505).\n(§3) To assess the effects of the aqueous bayberry extract on overexpressed and endogenous tau levels, a HeLa cell line stably transfected with tau (HeLa-C3) and a human IMR32 cell line derived from hippocampal neurons were treated with the bayberry extract at indicated doses for four hours. The hippocampus is the region first affected by tau deposition in Alzheimer's disease.\nBriefly, the EtOH extract was subjected to acid hydrolysis to enrich the aglycone component of the extract, and was then fractionated via medium pressure liquid chromatography (MPLC). The bayberry crude extract was separated into 8 UV-active fractions by MPLC) (FIG. 4A). The MPLC extraction method was designed to identify UV active flavonoids such as myricetin).\nTo investigate the effect of chirality on anti-tau activity, HaLa-C3 cells were treated with the isolated (+)-αR,11S-myricanol (86% ee) and commercially available “racemic” myricanol (actually 9% ee) at the indicated concentrations."}, "tau [2]": {"system": "tau", "experiment": "Western blot of endogenous tau levels in IMR32 cells", "format": "cell-based, human", "details": "IMR32 hippocampus-derived cells", "experimental": "as §1, §2, §3"}, "tau [3]": {"system": "tau", "experiment": "Ex-vivo murine brain slice cultures, Western blot of tau levels", "format": "cell-based, mice", "details": "murine brain slices", "experimental": "HeLa cells stably overexpressing tau (HeLa-C3; FIG. 2A) and IMR32 cells with endogenous tau levels (FIG. 2B) were treated for 4 hrs with aqueous bayberry extract at 0, 21, 35, 70 μg/ml (0, 0.3, 0.5, and 1.0% by volume). […] Tau levels are shown as a percentage of vehicle-treated cells ±SD. […] Treatments on whole brain murine slice cultures were performed in duplicate at doses of 0, 9, 18, 35, 70, 105, 140 μg/ml (0, 0.125, 0.25, 0.5, 1.0, and 2.0% by volume) of the bayberry extract. Each point in the graph (FIG. 2E) to the right represents the average tau reductions (n=8 slices) for all four mice at the given doses relative to the average vehicle ±SD. *p<0.05 by student's t test.\n4 non-transgenic 5-month-old mice were decapitated and their brains were quickly removed. 400 μm coronal sections were made using a vibratome as previously described (Jinwal et al. J. Neurosci. 2009, 29, 12079-12088; Qiu et al. J. Neurosci. 2006, 26, 12943-12955; Mirnikjoo et al. J. Biol. Chem. 2001, 276, 10888-10896. NP100572Z). […]"}, "[4]": {"experiment": "Lactate dehydrogenase release assay for myricanol", "format": "cell-based"}, "Hsp70 ATPase": {"system": "Hsp70 ATPase", "details": "previously shown; cited from earlier work"}}}
{"smiles": "COc1c2cc(c(O)c1OC)CCCC[C@@H](O)CCc1ccc(O)c-2c1", "note": "(racemic) [(+/−)-myricanol, reference compound]", "values": [{"measurement": "tau levels, effect of chirality", "setting": "tau [1]", "value": "no activity"}]}
{"smiles": "COc1c2cc(c(O)c1OC)CCCC[C@H](O)CCc1ccc(O)c-2c1", "note": "[(+)-αR,11S-myricanol]", "values": [{"measurement": "reduction of tau levels", "setting": "tau [2]", "value": "potently reduced tau levels"}, {"measurement": "EC50", "setting": "tau [1]; HeLa-C3, Western blot, read-out: EC50 for reduction of tau levels", "value": 35, "unit": "µM"}, {"measurement": "reduction of tau levels", "setting": "tau [1]; HeLa-C3, overexpressed tau", "value": "potently reduced tau levels"}, {"measurement": "tau levels, effect of chirality", "setting": "tau [1]", "value": "reduced significantly"}, {"measurement": "reduction of tau levels", "setting": "tau [3]", "value": "potently reduced tau levels"}]}
{"smiles": "COc1c2cc(c(O)c1OC)CCCC[C@@H](O)CCc1ccc(O)c-2c1", "note": "[myricanol]", "values": [{"measurement": "tau reduction after pre-treatment with autophagy inhibitor", "setting": "tau [1]; HeLa-C3, NH4Cl 20 mM pre-treatment", "value": "abrogated tau reductions"}, {"measurement": "tau reduction after pre-treatment with proteasomal inhibitor", "setting": "tau [1]; HeLa-C3, epoxomicin 0.3 μM pre-treatment", "value": "abrogated tau reductions"}, {"measurement": "reduction of intracellular tau levels compared with myricetin", "setting": "tau [1]; comparison stated in the description", "value": "more effectively reduces intracellular tau levels than myricetin"}, {"measurement": "toxicity by lactate dehydrogenase release", "setting": "[4]", "value": "little toxicity"}]}
{"smiles": "O=c1c(O)c(-c2cc(O)c(O)c(O)c2)oc2cc(O)cc(O)c12", "note": "[myricetin]", "values": [{"measurement": "inhibition of Hsp70 ATPase activity", "setting": "Hsp70 ATPase", "value": "inhibitor of Hsp70 ATPase activity"}]}
